Assay results as given in PubChem BioAssay AID248 (DTP/NCI, 2004).
“And” between values parts separate entries of the source, which are not always exact repeats. Identical values can stand only once. Inconclusive results and toxic doses are left out. Rule as the data show it: active = T/C of 150% or more; inactive = T/C below 125%.

System: L1210 leukemia ip in BDF1 mice, survival T/C
Test: NCI In Vivo Anticancer Drug Screen. Data for tumor model L1210 Leukemia (intraperitoneal) in B6D2F1 (BDF1) mice
Details: endpoint: mean survival time, higher = longer survival
Method in brief: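 Tumor cells were implanted, animals were treated, and survival was followed. The result divides the treated measurement by the vehicle-control measurement.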

[1] = dose: 100.0 mg/kg/injection, schedule: Q04DX003 (ip), vehicle: saline
[2] = dose: 200.0 mg/kg/injection, schedule: Q04DX003 (ip), vehicle: saline
[3] = dose: 400.0 mg/kg/injection, schedule: Q04DX003 (ip), vehicle: saline
[4] = dose: 100.0 mg/kg/injection, schedule: Q01DX009 (ip), vehicle: saline with Tween-80
[5] = dose: 100.0 mg/kg/injection, schedule: Q01DX009 (ip), vehicle: Klucel (hydroxypropylcellulose) (HPC)
[6] = dose: 200.0 mg/kg/injection, schedule: Q01DX009 (ip), vehicle: Klucel (hydroxypropylcellulose) (HPC)
[7] = dose: 400.0 mg/kg/injection, schedule: Q01DX009 (ip), vehicle: Klucel (hydroxypropylcellulose) (HPC)
[8] = dose: 100.0 mg/kg/injection, schedule: Q01DX001 (ip), vehicle: saline
[9] = dose: 100.0 mg/kg/injection, schedule: Q01DX009 (ip), vehicle: saline
[10] = dose: 200.0 mg/kg/injection, schedule: Q01DX001 (ip), vehicle: saline
[11] = dose: 200.0 mg/kg/injection, schedule: Q01DX009 (ip), vehicle: saline
[12] = dose: 400.0 mg/kg/injection, schedule: Q01DX001 (ip), vehicle: saline
[13] = dose: 400.0 mg/kg/injection, schedule: Q01DX009 (ip), vehicle: saline
[14] = dose: 100.0 mg/kg/injection, schedule: Q01DX001 (ip), vehicle: other
[15] = dose: 200.0 mg/kg/injection, schedule: Q01DX001 (ip), vehicle: other
[16] = dose: 100.0 mg/kg/injection, schedule: Q04DX003 (ip), vehicle: Klucel (hydroxypropylcellulose) (HPC)
[17] = dose: 200.0 mg/kg/injection, schedule: Q04DX003 (ip), vehicle: Klucel (hydroxypropylcellulose) (HPC)
[18] = dose: 400.0 mg/kg/injection, schedule: Q04DX003 (ip), vehicle: Klucel (hydroxypropylcellulose) (HPC)
[19] = dose: 100.0 mg/kg/injection, schedule: Q04DX003 (ip), vehicle: saline with Tween-80
[20] = dose: 200.0 mg/kg/injection, schedule: Q04DX003 (ip), vehicle: saline with Tween-80
[21] = dose: 400.0 mg/kg/injection, schedule: Q04DX003 (ip), vehicle: saline with Tween-80
[22] = dose: 50.0 mg/kg/injection, schedule: Q01DX001 (ip), vehicle: Klucel (hydroxypropylcellulose) (HPC)
[23] = dose: 12.5 mg/kg/injection, schedule: Q04DX003 (ip), vehicle: Klucel (hydroxypropylcellulose) (HPC)

Measured: T/C

CCCCNC(=O)NNC(=O)OCC
inactive: [1] 100 % of control | [2] 100 % of control | [3] 100 % of control

Cc1cccc(NC(=O)NCC(=O)N/N=C/c2cccc([N+](=O)[O-])c2)n1
inactive: dose: 50.0 mg/kg/injection, schedule: Q01DX009 (ip), vehicle: saline with Tween-80 93 % of control | [4] 90 % of control | dose: 200.0 mg/kg/injection, schedule: Q01DX009 (ip), vehicle: saline with Tween-80 88 % of control

COc1ccc(C)cc1NC(=O)Nc1cc(C(F)(F)F)ccc1Cl
inactive: [5] 88 % of control | [6] 95 % of control | [7] 90 % of control

O=C(CC(=O)Nc1ccccc1)Cc1ccccc1
inactive: [8] 102 % of control | [9] 93 % of control | [10] 88 % of control | [11] 90 % of control | [12] 93 % of control | [13] 93 % of control

CC12CC(c3ccoc3)OC(=O)C1CCC1(C)C2C2C=CC1(O)C(=O)O2 (stereo not drawn)
inactive: [8] 104 % of control | [10] 98 % of control | [12] 104 % of control

CSc1[nH]c2ncnc(N)c2c1C#N
inactive: [14] 88 % of control | [15] 101 % of control

O=C(O)CSc1nc2ccccc2s1
inactive: [4] 107 % of control

COC1OC1(C)C (stereo not drawn)
inactive: [9] 102 % of control | [1] 104 % of control | [11] 103 % of control | [2] 102 % of control | [13] 100 % of control | [3] 98 % of control

C[C@]12CCC(=O)C=C1CC[C@@H]1[C@@H]2[C@@H](O)C[C@@]2(C)[C@H]1CC[C@]2(O)C(=O)COC(=O)c1ccc([N+](=O)[O-])cc1Cl
inactive: dose: 100.0 mg/kg/injection, schedule: Q01DX001 (sc), vehicle: steriod suspending solution 101 % of control | dose: 200.0 mg/kg/injection, schedule: Q01DX001 (sc), vehicle: steriod suspending solution 101 % of control | dose: 400.0 mg/kg/injection, schedule: Q01DX001 (sc), vehicle: steriod suspending solution 97 % of control

N#CC(c1ccccc1)c1ccccc1
inactive: [14] 97 % of control | [15] 90 % of control | dose: 400.0 mg/kg/injection, schedule: Q01DX001 (ip), vehicle: other 95 % of control

C#CC1(NC(=S)NC(=O)c2ccccc2)CCCCC1
inactive: dose: 25.0 mg/kg/injection, schedule: Q01DX009 (ip), vehicle: Klucel (hydroxypropylcellulose) (HPC) 93 % of control | dose: 50.0 mg/kg/injection, schedule: Q01DX009 (ip), vehicle: Klucel (hydroxypropylcellulose) (HPC) 94 % of control | [5] 94 % of control and 88 % of control

CS(=O)(=O)Oc1ccc(Cl)c2ccccc12
inactive: dose: 100.0 mg/kg/injection, schedule: Q01DX001 (ip), vehicle: carboxymethylcellulose (CMC) 98 % of control | dose: 200.0 mg/kg/injection, schedule: Q01DX001 (ip), vehicle: carboxymethylcellulose (CMC) 101 % of control | dose: 400.0 mg/kg/injection, schedule: Q01DX001 (ip), vehicle: carboxymethylcellulose (CMC) 95 % of control

O=C1C(C(O)c2ccccc2)SC(c2ccccc2)N1c1ccccc1 (stereo not drawn)
inactive: [5] 97 % of control | [16] 90 % of control | [6] 101 % of control | [17] 94 % of control | [7] 95 % of control | [18] 93 % of control

O=C(CBr)c1cc(-c2cccc(I)c2)nc2c(Cl)cc(Cl)cc12
inactive: [19] 101 % of control | [20] 93 % of control | [21] 93 % of control

CC1CN=C(c2ccc(N)cc2)S1 (stereo not drawn)
inactive: dose: 87.0 mg/kg/injection, schedule: Q04DX003 (ip), vehicle: Klucel (hydroxypropylcellulose) (HPC) 94 % of control | dose: 175.0 mg/kg/injection, schedule: Q04DX003 (ip), vehicle: Klucel (hydroxypropylcellulose) (HPC) 105 % of control

N/C(=N\O)c1cn(C2OC(CO)C(O)C2O)c2nc(Cl)nc(N)c12 (stereo not drawn)
inactive: [22] 109 % of control | dose: 100.0 mg/kg/injection, schedule: Q01DX001 (ip), vehicle: Klucel (hydroxypropylcellulose) (HPC) 115 % of control

C=CC(=O)Nc1cccc(OC(=O)NC(C)C)c1
inactive: [19] 89 % of control | [20] 97 % of control | [21] 103 % of control

CSCCOC(=O)C1C2CCC(O2)C1C(=O)O (stereo not drawn)
inactive: [23] 104 % of control

O=C(O)c1ccc(Cl)o1
inactive: [5] 97 % of control | [6] 98 % of control

COc1ccc(CC2Cc3cc(OC)c(OC)cc3C=N2)cc1OC (stereo not drawn)
inactive: [9] 100 % of control | [1] 98 % of control | [11] 100 % of control | [2] 93 % of control | [3] 91 % of control

Clc1cccc(C[P+](c2ccccc2)(c2ccccc2)c2ccccc2)c1
inactive: dose: 1.5 mg/kg/injection, schedule: Q01DX009 (ip), vehicle: Klucel (hydroxypropylcellulose) (HPC) 91 % of control | dose: 3.0 mg/kg/injection, schedule: Q01DX009 (ip), vehicle: Klucel (hydroxypropylcellulose) (HPC) 94 % of control | dose: 6.0 mg/kg/injection, schedule: Q01DX009 (ip), vehicle: Klucel (hydroxypropylcellulose) (HPC) 88 % of control | [23] 98 % of control | dose: 25.0 mg/kg/injection, schedule: Q04DX003 (ip), vehicle: Klucel (hydroxypropylcellulose) (HPC) 98 % of control

CCCCCCCCCCCCCCSCCSCCSCCCCCCCCCCCCCC
inactive: dose: 12.5 mg/kg/injection, schedule: Q01DX001 (ip), vehicle: Klucel (hydroxypropylcellulose) (HPC) 103 % of control | dose: 25.0 mg/kg/injection, schedule: Q01DX001 (ip), vehicle: Klucel (hydroxypropylcellulose) (HPC) 97 % of control | [22] 89 % of control | dose: 400.0 mg/kg/injection, schedule: Q01DX001 (ip), vehicle: Klucel (hydroxypropylcellulose) (HPC) 87 % of control

Nc1nc2c(c(=O)[nH]1)N(Cc1ccccc1)C(CNc1ccc(C(=O)NC(CCC(=O)O)C(=O)O)cc1)CN2 (stereo not drawn)
inactive: dose: 100.0 mg/kg/injection, schedule: Q01DX001 (ip), vehicle: alkali diluted with saline 91 % of control | dose: 200.0 mg/kg/injection, schedule: Q01DX001 (ip), vehicle: alkali diluted with saline 94 % of control | dose: 400.0 mg/kg/injection, schedule: Q01DX001 (ip), vehicle: alkali diluted with saline 100 % of control

CCN(CC)CCCC(C)Nc1ncnc2c1C(c1ccccc1)C(C)(C)O2 (stereo not drawn)
inactive: [9] 106 % of control | [11] 101 % of control | [13] 101 % of control

CCCCCCCCNC(=O)CCCCC(=O)NCCCCCCCC
inactive: [5] 91 % of control | [16] 90 % of control | [6] 86 % of control | [17] 90 % of control | [7] 95 % of control | [18] 101 % of control

N#CCN1CCCCCC1
inactive: dose: 5.0 mg/kg/injection, schedule: Q01DX009 (ip), vehicle: Klucel (hydroxypropylcellulose) (HPC) 102 % of control | dose: 10.0 mg/kg/injection, schedule: Q01DX009 (ip), vehicle: Klucel (hydroxypropylcellulose) (HPC) 98 % of control | dose: 10.0 mg/kg/injection, schedule: Q04DX003 (ip), vehicle: Klucel (hydroxypropylcellulose) (HPC) 98 % of control | dose: 20.0 mg/kg/injection, schedule: Q04DX003 (ip), vehicle: Klucel (hydroxypropylcellulose) (HPC) 91 % of control
